The structures appear in SMILES notation. The source made the active and inactive calls. The rule behind the calls is not given here. Some results are limits rather than exact numbers.

The target in test [1] is T1, Amyloid-beta precursor protein (Homo sapiens, UniProt P05067). The experiment in a line: Inhibition of HFIP-induced human recombinant amyloid beta (1 to 40 residues) aggregation expressed in Escherichia coli at 25 uM measured over 24 hrs by ThT-based fluorescence spectroscopic method relative to control.
T1 sequence (P05067 whole entry, the tested form may be a part): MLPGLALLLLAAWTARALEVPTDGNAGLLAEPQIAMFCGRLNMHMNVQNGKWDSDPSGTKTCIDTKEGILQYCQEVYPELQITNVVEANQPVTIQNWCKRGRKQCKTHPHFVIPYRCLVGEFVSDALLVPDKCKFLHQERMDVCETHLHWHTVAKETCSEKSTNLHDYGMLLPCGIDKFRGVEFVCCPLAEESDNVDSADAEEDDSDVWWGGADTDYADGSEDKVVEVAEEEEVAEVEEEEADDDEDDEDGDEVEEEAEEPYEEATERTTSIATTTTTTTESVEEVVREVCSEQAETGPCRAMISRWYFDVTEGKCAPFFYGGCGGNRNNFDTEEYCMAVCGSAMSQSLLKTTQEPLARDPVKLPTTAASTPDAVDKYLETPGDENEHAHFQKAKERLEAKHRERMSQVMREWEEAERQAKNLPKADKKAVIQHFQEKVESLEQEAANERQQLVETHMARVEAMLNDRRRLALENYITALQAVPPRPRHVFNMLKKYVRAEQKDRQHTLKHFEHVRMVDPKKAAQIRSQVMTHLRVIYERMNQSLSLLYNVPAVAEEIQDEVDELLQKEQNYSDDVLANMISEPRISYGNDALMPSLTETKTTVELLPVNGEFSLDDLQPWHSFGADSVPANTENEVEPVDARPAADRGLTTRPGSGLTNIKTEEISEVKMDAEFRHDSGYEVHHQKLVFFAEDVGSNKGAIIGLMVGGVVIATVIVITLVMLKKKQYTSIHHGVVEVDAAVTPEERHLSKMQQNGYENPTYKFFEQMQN
For test [2], the target named is T2, Cholinesterase (Homo sapiens, UniProt P06276). Briefly: Potency index, ratio of donepezil IC50 to test compound IC50 for human BuChE.
T2 sequence (P06276 whole entry, the tested form may be a part): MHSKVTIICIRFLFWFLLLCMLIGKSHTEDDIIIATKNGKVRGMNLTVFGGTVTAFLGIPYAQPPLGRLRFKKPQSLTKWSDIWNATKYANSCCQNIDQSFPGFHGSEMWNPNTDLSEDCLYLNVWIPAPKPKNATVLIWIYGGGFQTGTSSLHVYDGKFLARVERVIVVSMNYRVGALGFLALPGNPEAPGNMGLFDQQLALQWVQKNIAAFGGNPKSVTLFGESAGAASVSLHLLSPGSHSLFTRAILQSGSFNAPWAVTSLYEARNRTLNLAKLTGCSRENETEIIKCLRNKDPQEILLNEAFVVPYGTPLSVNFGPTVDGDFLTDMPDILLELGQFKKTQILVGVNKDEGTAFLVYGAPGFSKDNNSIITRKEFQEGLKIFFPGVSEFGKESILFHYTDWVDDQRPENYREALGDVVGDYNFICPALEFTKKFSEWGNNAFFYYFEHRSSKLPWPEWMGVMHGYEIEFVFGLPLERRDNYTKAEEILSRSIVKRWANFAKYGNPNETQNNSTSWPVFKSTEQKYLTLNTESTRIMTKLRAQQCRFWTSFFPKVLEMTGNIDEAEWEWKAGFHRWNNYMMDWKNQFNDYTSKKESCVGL
In test [3] the target is T1, Amyloid-beta precursor protein. The experiment in a line: Inhibition of HFIP-induced human recombinant amyloid beta (1 to 42 residues) aggregation expressed in Escherichia coli at 25 uM measured over 24 hrs by ThT-based fluorescence spectroscopic method relative to control.
Test [4] has the same target. The experiment in a line: Inhibition of HFIP-induced human recombinant amyloid beta (1 to 42 residues) aggregation expressed in Escherichia coli assessed as reduction in amyloid beta fibril load at 25 uM after 24 hrs by transmission electron microscopic method.
Test [5] has the same target. The experiment in a line: Inhibition of HFIP-induced human recombinant amyloid beta (1 to 42 residues) aggregation expressed in Escherichia coli assessed as reduction in amyloid beta fibril load measured after 24 hrs by ThT fluorescence assay.
A short description of test [6]: Potency index, ratio of test compound to resveratrol antioxidant activity assessed as DPPH radical scavenging activity. For orientation: Loss of DPPH colour is used to gauge radical scavenging.
A short description of test [7]: Antioxidant activity assessed as DPPH radical scavenging activity at 50 uM relative to control. In kind it is functional.
Test [8] deals with T1, Amyloid-beta precursor protein.
Description: Inhibition of HFIP-induced human recombinant amyloid beta (1 to 40 residues) aggregation expressed in Escherichia coli measured over 24 hrs by ThT-based fluorescence spectroscopic method
Test [9] shares this target. Briefly: Potency index, ratio of resveratrol IC50 to test compound IC50 for HFIP-induced human recombinant amyloid beta (1 to 42 residues) aggregation.
Test [10] has the same target. The experiment in a line: Potency index, ratio of curcumin IC50 to test compound IC50 for HFIP-induced human recombinant amyloid beta (1 to 40 residues) aggregation.
A further test concerns the target Acetylcholinesterase (Homo sapiens, UniProt P22303).
Test [11] concerns the target T2, Cholinesterase.
Description: Inhibition of human BuChE using S-butyrylthiocholine iodide as substrate preincubated for 5 mins followed by substrate addition measured for 60 to 300 secs by Ellman's method
The target of test [12] is T1, Amyloid-beta precursor protein. The experiment in a line: Inhibition of HFIP-induced human recombinant amyloid beta (1 to 40 residues) aggregation expressed in Escherichia coli assessed as reduction in amyloid beta fibril load measured after 24 hrs by ThT fluorescence assay.
Test [13] shares this target. The experiment in a line: Inhibition of HFIP-induced human recombinant amyloid beta (1 to 40 residues) aggregation expressed in Escherichia coli assessed as reduction in amyloid beta fibril load at 25 uM after 24 hrs by transmission electron microscopic method.
The target is the same in test [14]. The experiment in a line: Potency index, ratio of curcumin IC50 to test compound IC50 for HFIP-induced human recombinant amyloid beta (1 to 42 residues) aggregation.
For test [15] the target is unchanged. This is another data set of the same source.
Description: Inhibition of HFIP-induced human recombinant amyloid beta (1 to 42 residues) aggregation expressed in Escherichia coli measured over 24 hrs by ThT-based fluorescence spectroscopic method

Chain of Acetylcholinesterase (P22303 whole entry): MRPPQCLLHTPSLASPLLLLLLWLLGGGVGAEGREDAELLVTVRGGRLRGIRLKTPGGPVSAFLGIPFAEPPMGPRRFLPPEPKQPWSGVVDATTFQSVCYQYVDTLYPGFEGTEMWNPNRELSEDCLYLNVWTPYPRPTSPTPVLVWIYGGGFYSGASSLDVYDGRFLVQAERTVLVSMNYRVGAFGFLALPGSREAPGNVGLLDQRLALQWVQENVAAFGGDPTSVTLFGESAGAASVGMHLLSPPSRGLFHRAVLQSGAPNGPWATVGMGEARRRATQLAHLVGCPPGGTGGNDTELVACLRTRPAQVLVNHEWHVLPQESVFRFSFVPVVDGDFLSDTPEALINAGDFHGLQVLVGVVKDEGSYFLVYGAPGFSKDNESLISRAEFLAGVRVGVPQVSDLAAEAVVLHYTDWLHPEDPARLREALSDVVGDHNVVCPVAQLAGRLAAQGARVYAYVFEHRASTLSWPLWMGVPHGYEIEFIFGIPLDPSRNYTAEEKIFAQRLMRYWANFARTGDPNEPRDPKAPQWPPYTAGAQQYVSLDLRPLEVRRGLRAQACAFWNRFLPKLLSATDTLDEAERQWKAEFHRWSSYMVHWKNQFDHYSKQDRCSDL
Description for Acetylcholinesterase: Inhibition of human AChE using acetylthiocholine iodide as substrate preincubated for 5 mins followed by substrate addition measured for 60 to 300 secs by Ellman's method

As for `Nc1nc(NCCc2ccccc2)nc2ccccc12`, the inhibition was greater than 50% in [1], 50% in [3] and “Dose-dependent effect” in [5]. Further, at Cholinesterase [2], the Ratio IC50 stood at 1.5. In addition, the inhibition entry in test [4] is “Active”.
As for `COc1ccc(CNc2nc(O)nc3ccccc23)cc1OC`, the Ratio in test [6] came out at 1.5. Further, the inhibition was greater than 50% in [1] and less than 10% in test [3]. Moreover, the Activity in test [7] was found to be 63.4%. In test [8], this compound returned an IC50 of 7.8 µM.
For `Nc1nc(NCc2ccccc2)nc2ccccc12`, the values for the inhibition in [1] and in test [5] were greater than 50% and “Dose-dependent effect”, respectively. Further, the Ratio IC50 in test [9] was 1.8; in test [10], 1.2 to 1.4. Besides, in [4], the inhibition entry was “Active”.
For `CC(C)Nc1nc(NCCc2ccccc2)c2ccccc2n1`, the inhibition in [1] is greater than 50%. The Ratio IC50 on Cholinesterase [2] is 2.3. Moreover, the IC50 amounted to 7.2 µM against Acetylcholinesterase, 1.6 µM on Cholinesterase [11] and 3.8 µM in test [8]. The inhibition result in test [3] is “inactive”.
On to `Oc1nc(NCc2ccccc2)c2ccccc2n1`, for which the inhibition result in test [12] is “Dose-dependent effect”; in test [1], greater than 50%; in test [3], 24%. Moreover, the inhibition entry in [13] is “Active”. Further, the results for the Ratio IC50 in test [9] and in test [14] were 4 and 12, respectively. Besides, in test [7], the Activity was determined as 47%. Besides, in test [8], half-maximal inhibition (IC50) required 0.27 µM.
On to `COc1ccc(CCNc2nc(Cl)nc3ccccc23)cc1OC`, for which the inhibition in test [1] is greater than 50%; in [5], “Dose-dependent effect”. Also, the IC50 in test [8] came out at 8.2 µM; in [15], 13 µM. Besides, the inhibition result in [4] is “Active”.
With `c1ccc(CCNc2nc(NC3CC3)nc3ccccc23)cc1`, the inhibition result was “Dose-dependent effect” in [12], greater than 50% in [1] and 22% in test [3]. In addition, the inhibition result in test [13] was “Active”. Besides, the Ratio IC50 in test [10] is 4.1. In addition, the half-inhibitory concentration (IC50) on Acetylcholinesterase worked out at 8.6 µM; at Cholinesterase [11], 11.4 µM; in [8], 0.79 µM.

In general, inhibition refers to the percentage by which the read-out fell short of the control. In general, IC50 refers to the midpoint of a concentration-inhibition curve.
